A word on the inhibition: it is the drop in the measured response relative to a control, in per cent.

The target in one experiment is T1, (H+/K+)-ATPase (Canis lupus familiaris, UniProt P50996).
T1 construct: The microsomes retained at the 15%-30% sucrose interface, after centrifugation at 250,000×g for sixty minutes, were used as the source of (H^+/K^+)-ATPase; from tissue; host or cells: gastric glandular mucosa of mongrel dogs (microsomal fraction, lyophilized)
The experiment can be described thus: Inhibition of (H+/K+)-ATPase from canine gastric mucosa (inorganic phosphate release). Particulars: canine gastric mucosa microsomes, pH 6.0, 30 min preincubation at 37° C.; read-out: (H+/K+)-ATPase IC50. In kind it is biochemical. In a few lines: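 Lyophilised gastric microsomes (sucrose-gradient 15%/30% interface fraction from dog mucosa, ~25 mcg protein) preincubated with compound 30 min at 37° C in 20 mM MES-Tris pH 6.0, 5 mM MgCl2, 25 mM sucrose, then 30 min more after 4 mM Tris-ATP. Released phosphate read by molybdate/ascorbate at 870 nm; activity = K+-stimulated (20 mM KCl) minus basal.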

Experiment [1] concerns the target HCMV protease (assemblin) (Human cytomegalovirus, UniProt P16753). The experiment can be described thus: Enzymatic assay for HCMV protease (assemblin) inhibitors, fluorogenic substrate DE2. In kind it is biochemical. Particulars: at 100 μm; 30 min preincubation at 22° C.; read-out: Assemblin Inhibition % Inhibition at 100 μm. Here is the method: The enzymatic assay for assemblin inhibitors compared the rate of product appearance between a control reaction containing no inhibitor and one that contained a known concentration of a potential inhibitor. There were two phases to the enzyme reaction. The first was a period of incubation of enzyme in the presence of inhibitor, but in the absence of the substrate. This incubation allowed for the inhibitor to bind and potentially block the enzyme from hydrolyzing the substrate. The second phase was started by adding the substrate and measuring the rate of product production.
The construction also encoded six additional histidine residues at the amino terminus of the protease. These additional histidine residues provided an affinity ligand by which it was purified using nickel-nitriloacetic acid-agarose (Qiagen).
The purified protease was stored as a 1-3 mg/ml stock solution in 50 mM sodium phosphate buffer, pH 7.4; 300 mM sodium chloride; 100 mM imidazole; 50% (v/v) glycerol. This stock was diluted with assay buffer to 4.8 μg/ml. A 100 μL aliquot of this solution was used in the enzyme reaction.
A specific substrate was synthesized based on the cleavage specificity of HCMV protease at the “maturation site” of the assembly protein (F. Liu and B. Roizman, J. Viral. 65, 5149 (1991), and A. R. Welch, et al, J. Viral., 65 4091 (1991)). The assembly protein maturation site has the sequence . . . AGVVNA*SCRLATA . . . (SEQ ID NO. 1); the substrate used was dabcycl-Abu-[…]-edans (SEQ ID NO. 2) (DE2). […] However, when the two chromophores are separated because of hydrolysis of the peptide moiety by HCMV protease the edans fluorescence was no longer quenched and an increase in fluorescence was realized. DE2 was stored as a stock solution at 160 μg/ml in dimethyl sulfoxide. This was diluted 10-fold with assay buffer to give a concentration of 16 μg/ml just before use. An aliquot of 50 μL was used in the reaction.
An assay Buffer (10 mM sodium phosphate buffer, pH 7.4; 150 mM sodium acetate; 0.1% CHAPS; and 20% (v/v) glycerol) was used to dilute stock solutions of enzyme and substrate.
Inhibitors were dissolved in dimethyl sulfoxide at 16-times the final assay concentration. A 10 μL aliquot of this inhibitor solution was used in the reaction.
A 100 μL aliquot of enzyme solution (4.8 μg/ml) was mixed with 10 μL of inhibitor solution in a 96-well plate cell and incubated at 22° C. for 30 minutes. Control reactions contained 10 μL of dimethylsulfoxide instead of inhibitor solution. After the preincubation was completed, 50 μL of substrate solution was added and the fluorescence recorded every 5 minutes for a period of 30 minutes. All reactions were run in triplicate with the exception of the uninhibited control reaction which was replicated 6-fold. The change in fluorescence was recorded over time and an average rate for each set of 3 reactions was calculated. Fluorescence assays were subject to spurious various due to factors such as dust in the 96-well plate; such results were omitted from the calculation of relative rates.

T1 sequence (P50996 whole entry): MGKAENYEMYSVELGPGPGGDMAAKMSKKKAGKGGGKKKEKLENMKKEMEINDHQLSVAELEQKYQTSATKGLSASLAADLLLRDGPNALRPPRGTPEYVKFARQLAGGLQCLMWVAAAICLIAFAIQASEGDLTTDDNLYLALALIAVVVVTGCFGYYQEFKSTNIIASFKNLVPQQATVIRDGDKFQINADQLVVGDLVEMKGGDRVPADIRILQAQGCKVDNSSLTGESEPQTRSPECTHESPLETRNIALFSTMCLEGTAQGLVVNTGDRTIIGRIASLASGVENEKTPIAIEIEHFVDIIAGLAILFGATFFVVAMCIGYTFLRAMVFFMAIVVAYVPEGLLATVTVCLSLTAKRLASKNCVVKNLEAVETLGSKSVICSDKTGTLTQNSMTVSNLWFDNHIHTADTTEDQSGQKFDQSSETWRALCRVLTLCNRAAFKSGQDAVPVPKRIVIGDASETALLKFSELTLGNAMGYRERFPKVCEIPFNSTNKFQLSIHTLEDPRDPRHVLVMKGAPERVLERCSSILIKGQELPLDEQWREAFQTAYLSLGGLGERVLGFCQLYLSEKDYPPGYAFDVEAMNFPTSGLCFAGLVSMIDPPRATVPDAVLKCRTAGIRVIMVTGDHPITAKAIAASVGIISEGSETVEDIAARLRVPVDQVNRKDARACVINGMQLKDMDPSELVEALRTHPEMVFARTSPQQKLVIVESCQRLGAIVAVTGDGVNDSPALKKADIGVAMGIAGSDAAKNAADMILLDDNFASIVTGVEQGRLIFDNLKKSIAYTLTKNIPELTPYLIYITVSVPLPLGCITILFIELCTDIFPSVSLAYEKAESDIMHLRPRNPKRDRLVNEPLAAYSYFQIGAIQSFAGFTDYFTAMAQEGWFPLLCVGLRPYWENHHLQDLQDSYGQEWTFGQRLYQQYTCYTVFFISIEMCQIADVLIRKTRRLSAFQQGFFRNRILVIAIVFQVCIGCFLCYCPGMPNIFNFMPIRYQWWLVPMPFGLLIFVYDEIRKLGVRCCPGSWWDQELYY
T1 sequence (P33704 whole entry partner): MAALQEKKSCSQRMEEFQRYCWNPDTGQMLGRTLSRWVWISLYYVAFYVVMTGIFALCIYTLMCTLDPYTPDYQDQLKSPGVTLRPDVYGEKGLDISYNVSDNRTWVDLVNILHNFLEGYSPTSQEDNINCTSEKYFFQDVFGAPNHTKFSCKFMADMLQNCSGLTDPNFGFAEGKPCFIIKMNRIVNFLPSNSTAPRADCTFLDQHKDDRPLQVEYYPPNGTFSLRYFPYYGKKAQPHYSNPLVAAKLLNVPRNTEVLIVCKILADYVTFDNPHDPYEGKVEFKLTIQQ
HCMV protease (assemblin), sequence (P16753 1-256): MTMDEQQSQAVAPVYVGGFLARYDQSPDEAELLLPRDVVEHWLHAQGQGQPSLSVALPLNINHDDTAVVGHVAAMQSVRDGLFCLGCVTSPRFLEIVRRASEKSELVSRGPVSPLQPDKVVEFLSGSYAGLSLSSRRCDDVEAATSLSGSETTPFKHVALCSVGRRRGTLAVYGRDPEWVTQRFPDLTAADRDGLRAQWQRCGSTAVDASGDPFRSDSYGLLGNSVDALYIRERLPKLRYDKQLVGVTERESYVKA

As for `Nc1ccccc1C[S+]([O-])c1nc2cc(Cl)ccc2[nH]1` (stereo not drawn) [Example 43, 2-[[(5-Chloro-1H-benzimidazol-2-yl)sulfinyl]-methyl]benzenamine], the IC50 at (H+/K+)-ATPase was determined as 12000 nM. Moreover, the inhibition at 100 µM in experiment [1] is 74%.

For `COc1ccc2[nH]c([S+]([O-])Cc3c(N)cc(C)c(OC)c3C)nc2c1` (stereo not drawn) [Example 78, 2-[[(5-Methoxy-1H-benzimidazol-2-yl)sulfinyl]methyl]-4-methoxy-3,5-dimethylbenzenamine], the IC50 at (H+/K+)-ATPase is 2100 nM. Moreover, the inhibition at 100 µM in experiment [1] came to 82%.

Regarding `COc1ccc2[nH]c([S+]([O-])Cc3ncc(C)c(OC)c3C)nc2c1` (stereo not drawn) [omeprazole, reference compound], the IC50 on (H+/K+)-ATPase was found to be 1900 nM. The inhibition at 100 µM in experiment [1] came to 0%.

In the case of `COc1ccc(N)c(C[S+]([O-])c2nc3ccccc3[nH]2)c1` (stereo not drawn) [Example 20, 2-[(1H-Benzimidazol-2-ylsulfinyl)methyl]-4-methoxybenzenamine], the IC50 at (H+/K+)-ATPase was determined as 1600 nM. The inhibition at 100 µM in experiment [1] turned out to be 60%.

For the molecule `Cc1ccc2[nH]c([S+]([O-])Cc3ccccc3N)nc2c1` (stereo not drawn) [Example 41, 2-[[(5-Methyl-1H-benzimidazol-2-yl)sulfinyl]-methyl]benzenamine], the IC50 on (H+/K+)-ATPase is 7900 nM. Besides, the inhibition at 100 µM in experiment [1] came to 67%.

Regarding `Cc1ccc(C[S+]([O-])c2nc3ccccc3[nH]2)c(N)c1C` (stereo not drawn) [Example 53, 2-[(1H-Benzimidazol-2-ylsulfinyl)methyl]-5,6-dimethylbenzenamine ¼ hydrate], the IC50 on (H+/K+)-ATPase was 600 nM. Also, in experiment [1], the inhibition at 100 µM turned out to be 85%.

For the origin of these results see patent US6906078B2, “Method of using (H+/K+) ATPase inhibitors as antiviral agents” (Pharmacia Corporation, priority 1994, dated 2005).
